From US10294202B2, “Pyrrolidinones as herbicides” (FMC Corporation, priority 2013, dated 2019)

How the values were obtained:
[1] = tested on: corn; experiment: Test A pre-/postemergence herbicide test; type: in vivo, Zea mays; conditions: Postemergence
Outline: (§1)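 Both application timings used compounds in a non-phytotoxic solvent plus surfactant. Pre-emergence: soil sprayed directly after seeding into loam/sand. Post-emergence: foliage of 2–10 cm seedlings (1–2 leaves) sprayed. Injury rated ~10 days later, 0–100.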

[2] = tested on: kochia; experiment: Test A pre-/postemergence herbicide test; type: in vivo, Kochia scoparia
Outline: as §1

[3] = tested on: ryegrass, Italian; experiment: Test A pre-/postemergence herbicide test; type: in vivo, Lolium multiflorum
Outline: as §1

[4] = tested on: ducksalad; experiment: Test B flooded paddy test; type: in vivo, Heteranthera limosa; conditions: 500 g ai/ha, Flood; scale of 0 to 100 where 0 is no effect and 100 is complete control
Outline: (§2)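 Plants were grown to the 2-leaf stage, then pots were flooded to 3 cm above the soil and compound was applied directly into the paddy water, with that depth held throughout. After 13 to 15 days in a greenhouse, injury was rated visually against untreated controls on a 0 to 100 scale (100 = complete control).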

[5] = tested on: pigweed; experiment: Test A pre-/postemergence herbicide test; type: in vivo, Amaranthus retroflexus
Outline: as §1

[6] = tested on: barnyardgrass; experiment: Test A pre-/postemergence herbicide test; type: in vivo, Echinochloa crus-galli
Outline: as §1

[7] = tested on: giant foxtail; experiment: Test A pre-/postemergence herbicide test; type: in vivo, Setaria faberii
Outline: as §1

[8] = tested on: blackgrass; experiment: Test A postemergence herbicide test; type: in vivo, Alopecurus myosuroides
Outline: (§3)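 Blackgrass and galium grown in pots of loam soil–sand blend, treated postemergence at 2–10 cm height, one- to two-leaf stage. Plants kept in greenhouse ~10 days, then visually rated for injury against untreated controls on a 0–100 scale (0 no effect, 100 complete control).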

[9] = tested on: rice; experiment: Test B flooded paddy test; type: in vivo, Oryza sativa; conditions: 500 g ai/ha, Flood; scale of 0 to 100 where 0 is no effect and 100 is complete control
Outline: as §2

[10] = tested on: ragweed; experiment: Test A pre-/postemergence herbicide test; type: in vivo, Ambrosia elatior
Outline: as §1

[11] = tested on: barnyardgrass; experiment: Test B flooded paddy test; type: in vivo, Echinochloa crus-galli; conditions: 500 g ai/ha, Flood; scale of 0 to 100 where 0 is no effect and 100 is complete control
Outline: as §2

[12] = tested on: galium; experiment: Test A postemergence herbicide test; type: in vivo, Galium aparine
Outline: as §3

[13] = tested on: sedge, umbrella; experiment: Test B flooded paddy test; type: in vivo, Cyperus difformis; conditions: 500 g ai/ha, Flood; scale of 0 to 100 where 0 is no effect and 100 is complete control
Outline: as §2

[14] = tested on: wheat; experiment: Test A pre-/postemergence herbicide test; type: in vivo, Triticum aestivum; conditions: Postemergence
Outline: as §1

[15] = 125 g ai/ha, visual rating on 0 to 100 scale (0 no effect, 100 complete control), approx. 10 days
[16] = 500 g ai/ha, 0 to 100 scale (0 no effect, 100 complete control)
[17] = Postemergence, 125 g ai/ha, visual rating on 0 to 100 scale (0 no effect, 100 complete control), approx. 10 days
[18] = Postemergence, 500 g ai/ha, 0 to 100 scale (0 no effect, 100 complete control)
[19] = Preemergence, 125 g ai/ha, 0 to 100 scale where 0 is no effect and 100 is complete control
[20] = preemergence, 500 g ai/ha, 0 to 100 scale, 0 is no effect and 100 is complete control
[21] = Preemergence, 500 g ai/ha, visual rating on 0 to 100 scale (0 no effect, 100 complete control)

O=C1NCC(c2ccc(Cl)c(Cl)c2)C1C(=O)Nc1ccc(F)c(F)c1F (centres unmarked) [Compound 286]
Plant response rating, Corn [1, 15]: 0
Plant response rating, Corn [1, 16]: 0
Plant response rating, Kochia [2, 17]: 0
Plant response rating, Kochia [2, 18]: 20
Plant response rating, Kochia [2, 19]: 30
Plant response rating, Kochia [2, 20]: 40
Plant response rating, Ryegrass, Italian [3, 17]: 0
Plant response rating, Ryegrass, Italian [3, 18]: 20
Plant response rating, Ryegrass, Italian [3, 19]: 0
Ryegrass, Italian plant response rating [3, 21]: 20
Plant response rating, Ducksalad [4]: 75
Plant response rating, Pigweed [5, 17]: 0
Plant response rating, Pigweed [5, 18]: 0
Plant response rating, Pigweed [5, 19]: 20
Plant response rating, Pigweed [5, 20]: 30
Plant response rating, Barnyardgrass [6, 17]: 60
Plant response rating, Barnyardgrass [6, 18]: 60
Plant response rating, Barnyardgrass [6, 19]: 60
Plant response rating, Barnyardgrass [6, 20]: 60
Plant response rating, Foxtail, Giant [7, 17]: 60
Plant response rating, Foxtail, Giant [7, 18]: 70
Plant response rating, Foxtail, Giant [7, 19]: 80
Plant response rating, Foxtail, Giant [7, 20]: 80
Plant response rating, Blackgrass [8, 15]: 0
Plant response rating, Blackgrass [8, 16]: 0
Plant response rating, Rice [9]: 10
Plant response rating, Ragweed [10, 17]: 0
Plant response rating, Ragweed [10, 18]: 0
Plant response rating, Ragweed [10, 19]: 0
Plant response rating, Ragweed [10, 20]: 0
Plant response rating, Barnyardgrass [11]: 15
Plant response rating, Galium [12, 15]: 0
Plant response rating, Galium [12, 16]: 0
Plant response rating, Sedge, Umbrella [13]: 0
Plant response rating, Wheat [14, 15]: 0
Plant response rating, Wheat [14, 16]: 0

CSc1cccc(C2CNC(=O)C2C(=O)Nc2ccccc2F)c1 (centres unmarked) [Compound 287]
Plant response rating, Corn [1, 15]: 0
Plant response rating, Corn [1, 16]: 0
Plant response rating, Kochia [2, 17]: 0
Plant response rating, Kochia [2, 18]: 0
Plant response rating, Kochia [2, 19]: 0
Plant response rating, Kochia [2, 20]: 0
Plant response rating, Ryegrass, Italian [3, 17]: 0
Plant response rating, Ryegrass, Italian [3, 18]: 0
Plant response rating, Ryegrass, Italian [3, 19]: 0
Ryegrass, Italian plant response rating [3, 21]: 0
Plant response rating, Ducksalad [4]: 75
Plant response rating, Pigweed [5, 17]: 0
Plant response rating, Pigweed [5, 18]: 0
Plant response rating, Pigweed [5, 19]: 0
Plant response rating, Pigweed [5, 20]: 0
Plant response rating, Barnyardgrass [6, 17]: 50
Plant response rating, Barnyardgrass [6, 18]: 80
Plant response rating, Barnyardgrass [6, 19]: 50
Plant response rating, Barnyardgrass [6, 20]: 80
Plant response rating, Foxtail, Giant [7, 17]: 0
Plant response rating, Foxtail, Giant [7, 18]: 0
Plant response rating, Foxtail, Giant [7, 19]: 50
Plant response rating, Foxtail, Giant [7, 20]: 80
Plant response rating, Blackgrass [8, 15]: 0
Plant response rating, Blackgrass [8, 16]: 0
Plant response rating, Rice [9]: 0
Plant response rating, Ragweed [10, 17]: 0
Plant response rating, Ragweed [10, 18]: 0
Plant response rating, Ragweed [10, 19]: 0
Plant response rating, Ragweed [10, 20]: 0
Plant response rating, Barnyardgrass [11]: 30
Plant response rating, Galium [12, 15]: 0
Plant response rating, Galium [12, 16]: 0
Plant response rating, Sedge, Umbrella [13]: 0
Plant response rating, Wheat [14, 15]: 0
Plant response rating, Wheat [14, 16]: 0

CSc1cccc(C2CNC(=O)C2C(=O)Nc2cccc(F)c2F)c1 (centres unmarked) [Compound 289]
Plant response rating, Corn [1, 15]: 0
Plant response rating, Corn [1, 16]: 0
Plant response rating, Kochia [2, 17]: 0
Plant response rating, Kochia [2, 18]: 0
Plant response rating, Kochia [2, 19]: 0
Plant response rating, Kochia [2, 20]: 0
Plant response rating, Ryegrass, Italian [3, 17]: 0
Plant response rating, Ryegrass, Italian [3, 18]: 0
Plant response rating, Ryegrass, Italian [3, 19]: 0
Ryegrass, Italian plant response rating [3, 21]: 0
Plant response rating, Ducksalad [4]: 90
Plant response rating, Pigweed [5, 17]: 0
Plant response rating, Pigweed [5, 18]: 0
Plant response rating, Pigweed [5, 20]: 0
Plant response rating, Barnyardgrass [6, 17]: 50
Plant response rating, Barnyardgrass [6, 18]: 70
Plant response rating, Barnyardgrass [6, 19]: 50
Plant response rating, Barnyardgrass [6, 20]: 80
Plant response rating, Foxtail, Giant [7, 17]: 30
Plant response rating, Foxtail, Giant [7, 18]: 60
Plant response rating, Foxtail, Giant [7, 19]: 60
Plant response rating, Foxtail, Giant [7, 20]: 90
Plant response rating, Blackgrass [8, 15]: 0
Plant response rating, Blackgrass [8, 16]: 0
Plant response rating, Rice [9]: 20
Plant response rating, Ragweed [10, 17]: 0
Plant response rating, Ragweed [10, 18]: 0
Plant response rating, Ragweed [10, 19]: 0
Plant response rating, Ragweed [10, 20]: 0
Plant response rating, Barnyardgrass [11]: 30
Plant response rating, Galium [12, 15]: 0
Plant response rating, Galium [12, 16]: 0
Plant response rating, Sedge, Umbrella [13]: 0
Plant response rating, Wheat [14, 15]: 0
Plant response rating, Wheat [14, 16]: 0

CSc1cccc(C2CNC(=O)C2C(=O)Nc2ccc(F)c(F)c2F)c1 (centres unmarked) [Compound 290]
Plant response rating, Corn [1, 15]: 0
Plant response rating, Corn [1, 16]: 0
Plant response rating, Kochia [2, 17]: 0
Plant response rating, Kochia [2, 18]: 0
Plant response rating, Kochia [2, 19]: 0
Plant response rating, Kochia [2, 20]: 0
Plant response rating, Ryegrass, Italian [3, 17]: 0
Plant response rating, Ryegrass, Italian [3, 18]: 0
Plant response rating, Ryegrass, Italian [3, 19]: 0
Ryegrass, Italian plant response rating [3, 21]: 0
Plant response rating, Ducksalad [4]: 75
Plant response rating, Pigweed [5, 17]: 0
Plant response rating, Pigweed [5, 18]: 10
Plant response rating, Pigweed [5, 19]: 0
Plant response rating, Pigweed [5, 20]: 0
Plant response rating, Barnyardgrass [6, 17]: 50
Plant response rating, Barnyardgrass [6, 18]: 80
Plant response rating, Barnyardgrass [6, 19]: 60
Plant response rating, Barnyardgrass [6, 20]: 80
Plant response rating, Foxtail, Giant [7, 17]: 30
Plant response rating, Foxtail, Giant [7, 18]: 60
Plant response rating, Foxtail, Giant [7, 19]: 60
Plant response rating, Foxtail, Giant [7, 20]: 80
Plant response rating, Blackgrass [8, 15]: 0
Plant response rating, Blackgrass [8, 16]: 0
Plant response rating, Rice [9]: 0
Plant response rating, Ragweed [10, 17]: 0
Plant response rating, Ragweed [10, 18]: 0
Plant response rating, Ragweed [10, 19]: 0
Plant response rating, Ragweed [10, 20]: 0
Plant response rating, Barnyardgrass [11]: 40
Plant response rating, Galium [12, 15]: 0
Plant response rating, Galium [12, 16]: 0
Plant response rating, Sedge, Umbrella [13]: 0
Plant response rating, Wheat [14, 15]: 0
Plant response rating, Wheat [14, 16]: 0

CSc1cccc(C2CNC(=O)C2C(=O)Nc2ccccc2Cl)c1 (centres unmarked) [Compound 291]
Plant response rating, Corn [1, 15]: 0
Plant response rating, Corn [1, 16]: 0
Plant response rating, Kochia [2, 17]: 0
Plant response rating, Kochia [2, 18]: 0
Plant response rating, Kochia [2, 19]: 20
Plant response rating, Kochia [2, 20]: 20
Plant response rating, Ryegrass, Italian [3, 17]: 0
Plant response rating, Ryegrass, Italian [3, 18]: 0
Plant response rating, Ryegrass, Italian [3, 19]: 0
Ryegrass, Italian plant response rating [3, 21]: 30
Plant response rating, Ducksalad [4]: 0
Plant response rating, Pigweed [5, 17]: 0
Plant response rating, Pigweed [5, 18]: 0
Plant response rating, Pigweed [5, 19]: 0
Plant response rating, Pigweed [5, 20]: 0
Plant response rating, Barnyardgrass [6, 17]: 40
Plant response rating, Barnyardgrass [6, 18]: 60
Plant response rating, Barnyardgrass [6, 19]: 20
Plant response rating, Barnyardgrass [6, 20]: 60
Plant response rating, Foxtail, Giant [7, 17]: 20
Plant response rating, Foxtail, Giant [7, 18]: 50
Plant response rating, Foxtail, Giant [7, 19]: 20
Plant response rating, Foxtail, Giant [7, 20]: 80
Plant response rating, Blackgrass [8, 15]: 0
Plant response rating, Blackgrass [8, 16]: 0
Plant response rating, Rice [9]: 20
Plant response rating, Ragweed [10, 17]: 0
Plant response rating, Ragweed [10, 18]: 0
Plant response rating, Ragweed [10, 19]: 0
Plant response rating, Ragweed [10, 20]: 0
Plant response rating, Barnyardgrass [11]: 0
Plant response rating, Galium [12, 15]: 20
Plant response rating, Galium [12, 16]: 0
Plant response rating, Sedge, Umbrella [13]: 0
Plant response rating, Wheat [14, 15]: 0
Plant response rating, Wheat [14, 16]: 0
